Our source for the Ki, Activity and IC50 values is ChEMBL document CHEMBL1126862, “Substituted 3-phenylpiperidines: new centrally acting dopamine autoreceptor antagonists” (J Med Chem, 1993).

Assay [1] addresses T1, D(2) dopamine receptor (Bos taurus, UniProt P20288). Put plainly: Evaluated for binding towards Dopamine receptor D2 using [3H]-spiperone as radioligand, in cloned mammalian receptors expressed in CHO-K1 cells. The class given is cell-based.
The target of assay [2] is T2, D(2) dopamine receptor (Rattus norvegicus, UniProt P61169). The experiment in a line: Evaluated for binding towards Dopamine receptor D2 using [3H]N-0437 as radioligand from rat striatal membrane.
T2 sequence (P61169 whole entry): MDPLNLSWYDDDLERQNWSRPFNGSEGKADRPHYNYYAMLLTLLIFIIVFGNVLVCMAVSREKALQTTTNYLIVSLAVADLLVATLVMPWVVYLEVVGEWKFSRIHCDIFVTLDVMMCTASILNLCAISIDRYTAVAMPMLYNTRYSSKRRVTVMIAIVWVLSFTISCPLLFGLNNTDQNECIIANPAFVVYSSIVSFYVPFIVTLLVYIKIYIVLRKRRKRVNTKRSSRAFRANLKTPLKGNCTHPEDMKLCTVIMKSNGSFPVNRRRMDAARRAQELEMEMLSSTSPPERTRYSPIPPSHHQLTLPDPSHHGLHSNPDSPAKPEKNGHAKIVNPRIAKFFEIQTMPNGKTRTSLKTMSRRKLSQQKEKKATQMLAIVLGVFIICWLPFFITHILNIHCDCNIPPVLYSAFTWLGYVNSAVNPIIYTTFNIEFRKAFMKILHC
The target of assay [3] is T2, D(2) dopamine receptor. The experiment in a line: Binding towards Dopamine receptor D2 using [3H]spiperone from rat striatal membrane.
In assay [4] the test system is Rattus norvegicus. The experiment in a line: Evaluated for DOPA accumulation in limbic region of nonpretreated rat at 25 umol / kg administered subcutaneously. The class given is functional, Limbic system.
Assay [5] deals with Rattus norvegicus. The experiment in a line: Evaluated for 5-HTP increase in hemisphere region of nonpretreated rat at 200 umol / kg administered subcutaneously. The class given is functional.
In assay [6] the test system is Rattus norvegicus. Put plainly: Evaluated for 5-HTP increase in limbic region of nonpretreated rat at 200 umol / kg administered subcutaneously. The class given is functional, Limbic system.
Assay [7] concerns Rattus norvegicus. Put plainly: Evaluated for DOPA accumulation in limbic region of nonpretreated rat at 200 umol / kg administered subcutaneously. It counts as functional, Limbic system.
Assay [8] relates to Rattus norvegicus. The experiment in a line: Evaluated for DOPA accumulation in limbic region of reserpine pretreated rat at 52 umol / kg administered subcutaneously. The class given is functional, Limbic system.
The test system of assay [9] is Rattus norvegicus. Put plainly: Evaluated for DOPA accumulation in striatum of nonpretreated rat at 200 umol / kg administered subcutaneously. It counts as functional.
The test system of assay [10] is Rattus norvegicus. Put plainly: Evaluated for DOPA accumulation in striatum of nonpretreated rat at 25 umol / kg administered subcutaneously. The class given is functional.
The test system of assay [11] is Rattus norvegicus. The experiment in a line: Evaluated for DOPA accumulation in striatum of reserpine pretreated rat at 100 umol / kg administered intraperitoneally. It counts as functional.
The subject of assay [12] is Rattus norvegicus. The experiment in a line: Evaluated for rat locomotor activity in nonhabituated rats at 200 umol / kg administered subcutaneously. It counts as functional.
The species named for assay [13] is Rattus norvegicus. The experiment in a line: Evaluated for rat locomotor activity in nonhabituated rats at 25 umol / kg. The class given is functional.
The species entered for assay [14] is Rattus norvegicus. The experiment in a line: Rat locomotor activity in reserpine pretreated rats and accumulated counts / 30 min is calculated. It counts as functional.
Assay [15] deals with T3, Sigma non-opioid intracellular receptor 1 (Rattus norvegicus, UniProt Q9R0C9). The experiment in a line: Binding affinity for sigma receptor using 2 nM of [3H]DTG as radioligand, in membranes from brain minus cerebellum. The class given is tissue-based.
T3 sequence (Q9R0C9 whole entry): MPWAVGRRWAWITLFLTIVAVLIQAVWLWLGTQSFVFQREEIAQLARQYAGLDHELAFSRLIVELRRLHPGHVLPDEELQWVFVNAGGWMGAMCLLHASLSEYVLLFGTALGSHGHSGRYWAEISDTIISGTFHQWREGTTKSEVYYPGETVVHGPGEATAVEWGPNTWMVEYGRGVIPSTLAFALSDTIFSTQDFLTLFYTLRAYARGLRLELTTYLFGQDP
Assay [16] concerns the target T1, D(2) dopamine receptor. Put plainly: Binding towards Dopamine receptor D2 expressed in CHO-K1 cells using [3H]U-86170. The class given is cell-based.
Assay [17] is filed under the species Rattus norvegicus. The experiment in a line: Evaluated for rat locomotor activity in nonpretreated habituated rats at 100 umol / kg. The class given is functional. The arrangement: unit not given beside the values.
A further assay addresses D(3) dopamine receptor (Homo sapiens, UniProt P35462).
In assay [18] the target is T4, D(4) dopamine receptor (Homo sapiens, UniProt P21917).
T4 sequence (P21917 whole entry): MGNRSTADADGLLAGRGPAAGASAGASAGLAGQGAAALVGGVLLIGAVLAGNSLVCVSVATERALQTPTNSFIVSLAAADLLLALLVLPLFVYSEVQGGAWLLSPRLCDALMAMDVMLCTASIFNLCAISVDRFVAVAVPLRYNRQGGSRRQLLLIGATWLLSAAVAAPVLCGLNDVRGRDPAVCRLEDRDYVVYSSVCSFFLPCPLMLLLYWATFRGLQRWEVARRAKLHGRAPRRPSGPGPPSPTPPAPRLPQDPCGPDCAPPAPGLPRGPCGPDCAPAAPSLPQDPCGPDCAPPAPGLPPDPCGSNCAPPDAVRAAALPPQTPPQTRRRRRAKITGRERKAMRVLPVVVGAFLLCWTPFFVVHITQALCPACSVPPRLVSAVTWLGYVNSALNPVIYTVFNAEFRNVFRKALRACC
Description: (§1) Binding towards dopamine receptor D4 expressed in CHO-K1 cells using [3H]spiperone

The test system of assay [19] is Rattus norvegicus. The experiment in a line: Evaluated for 5-HTP increase in hemisphere region of nonpretreated rat at 27 umol / kg administered subcutaneously. The class given is functional.
The test system of assay [20] is Rattus norvegicus. Put plainly: Evaluated for 5-HTP increase in limbic region of nonpretreated rat at 27 umol / kg administered subcutaneously. It counts as functional, Limbic system.
In assay [21] the test system is Rattus norvegicus. Put plainly: Evaluated for DOPA accumulation in limbic region of reserpine pretreated rat at 27 umol / kg administered subcutaneously. The class given is functional, Limbic system.
In assay [22] the test system is Rattus norvegicus. Put plainly: Evaluated in rat accumbens for the effect on DOPAC release and metabolism in brain dialysis model after administration of 50 umol / kg subcutaneously. The class given is functional.
The subject of assay [23] is Rattus norvegicus. Put plainly: Evaluated in rat accumbens for the effect on dopamine release and metabolism in brain dialysis model after administration of 50 umol / kg subcutaneously. It counts as functional.
For assay [24], the system named is Rattus norvegicus. The experiment in a line: Evaluated in rat striatum for the effect on DOPAC release and metabolism in brain dialysis model after administration of 50 umol / kg subcutaneously. The class given is functional. The arrangement: unit not given beside the values.
Assay [25] deals with Rattus norvegicus. The experiment in a line: Evaluated in rat striatum for the effect on dopamine release and metabolism in brain dialysis model after administration of 50 umol / kg subcutaneously. It counts as functional. Also on record: unit not given beside the values.
Assay [26] deals with Rattus norvegicus. The experiment in a line: Evaluated for rat locomotor activity in nonhabituated rats at 213 umol / kg administered subcutaneously. It counts as functional.
In assay [27] the test system is Rattus norvegicus. Put plainly: Evaluated for 5-HTP increase in limbic region of nonpretreated rat at 100 umol / kg administered subcutaneously. The class given is functional, Limbic system.
In assay [28] the test system is Rattus norvegicus. Put plainly: Evaluated for DOPA accumulation in limbic region of nonpretreated rat at 100 umol / kg administered subcutaneously. The class given is functional, Limbic system.
Assay [29] is filed under the species Rattus norvegicus. Put plainly: Evaluated for rat locomotor activity in nonpretreated habituated rats at 25 umol / kg. The class given is functional.
Assay [30] concerns Rattus norvegicus. Put plainly: Evaluated for DOPA accumulation in striatum of nonpretreated rat at 100 umol / kg administered subcutaneously. The class given is functional.
Assay [31] concerns the target T3, Sigma non-opioid intracellular receptor 1. Put plainly: Binding effinity for sigma receptor using 2 nM of [3H]DTG as radioligand, in membranes from brain minus cerebellum. The class given is tissue-based.
For assay [32], the target named is T4, D(4) dopamine receptor. The following applies: cho-k1.
Description: as §1
Assay [33] has as its system Rattus norvegicus. The experiment in a line: Evaluated for 5-HTP increase in hemisphere region of nonpretreated rat at 100 umol / kg administered subcutaneously (p<0.05). The class given is functional.
The test system of assay [34] is Rattus norvegicus. The experiment in a line: Evaluated for DOPA accumulation in limbic region of nonpretreated rat at 100 umol / kg administered subcutaneously (p<0.05). It counts as functional, Limbic system.
The species entered for assay [35] is Rattus norvegicus. The experiment in a line: Evaluated for rat locomotor activity in nonpretreated habituated rats at 100 umol / kg (p<0.05). It counts as functional.
The species entered for assay [36] is Rattus norvegicus. Put plainly: Evaluated for rat locomotor activity in nonpretreated habituated rats at 25 umol / kg (p<0.05). It counts as functional.
The test system of assay [37] is Rattus norvegicus. Put plainly: Evaluated for DOPA accumulation in limbic region of reserpine pretreated rat at 100 umol / kg administered intraperitoneally (p<0.05). It counts as functional, Limbic system.
Assay [38] deals with Rattus norvegicus. The experiment in a line: Evaluated for DOPA accumulation in striatum of nonpretreated rat at 100 umol / kg administered subcutaneously (p<0.05). The class given is functional.
Assay [39] is filed under the species Rattus norvegicus. Put plainly: Evaluated for rat locomotor activity in nonhabituated rats at 100 umol / kg. It counts as functional.
For assay [40], the species on record is Rattus norvegicus. Put plainly: Rat locomotor activity in reserpine pretreated rats and accumulated counts / 30 min. The class given is functional.
For assay [41], the system named is Rattus norvegicus. Put plainly: Evaluated for DOPA accumulation in limbic region of reserpine pretreated rat at 100 umol / kg administered intraperitoneally. It counts as functional, Limbic system.

T1 sequence (P20288 whole entry): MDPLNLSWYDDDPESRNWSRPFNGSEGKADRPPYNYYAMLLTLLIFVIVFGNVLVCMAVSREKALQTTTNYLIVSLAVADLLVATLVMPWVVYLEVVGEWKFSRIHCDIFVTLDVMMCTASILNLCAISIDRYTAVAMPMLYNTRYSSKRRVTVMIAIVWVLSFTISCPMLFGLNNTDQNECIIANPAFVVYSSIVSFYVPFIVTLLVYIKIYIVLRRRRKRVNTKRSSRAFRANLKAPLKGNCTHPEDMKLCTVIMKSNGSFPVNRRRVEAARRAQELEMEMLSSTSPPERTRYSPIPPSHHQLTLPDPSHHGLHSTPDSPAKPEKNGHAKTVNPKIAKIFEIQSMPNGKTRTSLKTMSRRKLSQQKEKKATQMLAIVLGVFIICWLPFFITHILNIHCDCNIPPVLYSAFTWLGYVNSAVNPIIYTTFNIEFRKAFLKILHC
D(3) dopamine receptor, sequence (P35462 whole entry): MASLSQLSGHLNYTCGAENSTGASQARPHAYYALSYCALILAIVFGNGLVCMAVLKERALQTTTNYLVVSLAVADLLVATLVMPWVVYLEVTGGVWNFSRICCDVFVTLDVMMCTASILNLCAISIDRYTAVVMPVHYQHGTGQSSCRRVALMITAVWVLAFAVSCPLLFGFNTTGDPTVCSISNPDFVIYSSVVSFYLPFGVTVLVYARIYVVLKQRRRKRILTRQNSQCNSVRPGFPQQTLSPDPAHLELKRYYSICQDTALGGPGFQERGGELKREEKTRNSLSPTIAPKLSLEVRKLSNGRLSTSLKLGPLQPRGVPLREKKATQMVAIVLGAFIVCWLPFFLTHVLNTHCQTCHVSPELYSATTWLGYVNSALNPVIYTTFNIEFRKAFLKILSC
Description for D(3) dopamine receptor: Binding towards Dopamine receptor D3 expressed in CHO-K1 cells using [3H]spiperone

As to `CCCN1CCCC(c2cccc(C#N)c2)C1` (single isomer, unassigned; (+)), the inhibitory constant (Ki) (as a rule, a measure of affinity in units of concentration, obtained from inhibition or displacement) on D(2) dopamine receptor [1] is > 2000 nM; on D(2) dopamine receptor [2], 4900 nM; at D(2) dopamine receptor [3] it was 12600 nM; on D(2) dopamine receptor [16] it was 1720 nM; at D(3) dopamine receptor it was > 1420 nM; on D(4) dopamine receptor [18] it was > 933 nM. Also, the Activity is listed as 109 with Rattus norvegicus [4]; 94 in the assay on Rattus norvegicus [5]; 71 in the assay with Rattus norvegicus [6]; 94 with Rattus norvegicus [7]; 93 with Rattus norvegicus [8]; 78 with Rattus norvegicus [9]. Further, the Activity is recorded as 84 in the assay with Rattus norvegicus [10]; 81 in the assay with Rattus norvegicus [11]; 118 with Rattus norvegicus [12]; 104 in the assay filed under Rattus norvegicus [13]; 6 in the assay listed under Rattus norvegicus [14]; 559 in the assay filed under Rattus norvegicus [17]. For the same molecule, in [15], the IC50 (as a rule, the concentration that gives 50% inhibition) is 520 nM.
Consider `CCCN1CCCC(c2cccc(O)c2)C1` (single isomer, unassigned; (-)), for which the Ki on D(2) dopamine receptor [1] came to 137 nM; at D(2) dopamine receptor [16] it was 8.5 nM; on D(4) dopamine receptor [18], 130 nM. For the same molecule, the Activity was found to be 91 in the assay with Rattus norvegicus [4]; 87 with Rattus norvegicus [19]; 89 in the assay on Rattus norvegicus [20]; 30 in the assay on Rattus norvegicus [21]; 147 in the assay on Rattus norvegicus [10]; 115 in the assay with Rattus norvegicus [22]. Further, the Activity in the assay with Rattus norvegicus [23] is listed as 98; with Rattus norvegicus [24], 70; with Rattus norvegicus [25], 700; in the assay with Rattus norvegicus [26], 40; in the assay listed under Rattus norvegicus [13], 74; in the assay filed under Rattus norvegicus [14], 12. Moreover, in the assay filed under Rattus norvegicus [17], the Activity is 208.
With `CCCN1CCCC(c2cccc(C#N)c2)C1` (single isomer, unassigned; (-)), the inhibitory constant (Ki) is 889 nM at D(2) dopamine receptor [1]; 396 nM on D(2) dopamine receptor [2]; 1140 nM at D(2) dopamine receptor [3]; 119 nM at D(2) dopamine receptor [16]; 249 nM at D(3) dopamine receptor; > 933 nM on D(4) dopamine receptor [32]. The Activity with Rattus norvegicus [4] is on record as 204; in the assay on Rattus norvegicus [27], 148; with Rattus norvegicus [28], 219; in the assay filed under Rattus norvegicus [29], 418; in the assay on Rattus norvegicus [8], 136; in the assay on Rattus norvegicus [30], 268. Besides, the Activity was 285 in the assay with Rattus norvegicus [10]; 105 in the assay on Rattus norvegicus [11]; 294 in the assay on Rattus norvegicus [23]; 299 in the assay with Rattus norvegicus [24]; 295 in the assay on Rattus norvegicus [25]; 12 in the assay filed under Rattus norvegicus [14]. In addition, the Activity in the assay filed under Rattus norvegicus [17] amounted to 719. In [31], the IC50 amounted to 2200 nM.
In the case of `CCCN1CCC[C@H](c2cccc(OS(=O)(=O)C(F)(F)F)c2)C1`, the Activity in the assay on Rattus norvegicus [4] is 93; with Rattus norvegicus [33], 86; with Rattus norvegicus [27], 86; in the assay on Rattus norvegicus [34], 82; in the assay filed under Rattus norvegicus [35] it was 34; in the assay filed under Rattus norvegicus [36], 30. The Activity amounted to 75 in the assay on Rattus norvegicus [37]; 80 in the assay with Rattus norvegicus [38]; 92 with Rattus norvegicus [10]; 80 in the assay on Rattus norvegicus [11]; 95 in the assay listed under Rattus norvegicus [39]; 115 in the assay listed under Rattus norvegicus [13]. The Activity in the assay listed under Rattus norvegicus [40] is recorded as 2. For the same molecule, the half-maximal inhibitory concentration (IC50) in assay [31] worked out at 6 nM.
Consider `CCCN1CCCC(c2cccc(O)c2)C1` (single isomer, unassigned; (+)), for which the Ki at D(2) dopamine receptor [1] was 776 nM; at D(2) dopamine receptor [16] it was 32 nM; at D(4) dopamine receptor [18], > 1000 nM. In addition, the Activity with Rattus norvegicus [4] amounted to 37; in the assay on Rattus norvegicus [41], 18; with Rattus norvegicus [10] it was 43; with Rattus norvegicus [24] it was 42; with Rattus norvegicus [25] it was 28; in the assay on Rattus norvegicus [26], 230. The values for the Activity in the assay listed under Rattus norvegicus [13] and in the assay listed under Rattus norvegicus [14] were 75 and 78, respectively.
